{"source": "paper PMC9487482", "about": "“Activity of Tricyclic Pyrrolopyrimidine Gyrase B Inhibitor against Mycobacterium abscessus” (Antimicrobial Agents and Chemotherapy, 2022)", "molecular_target": "T1, DNA gyrase subunit B (GyrB) (Mycobacteroides abscessus, UniProt B1ME45)", "T1 construct": "recombinant M. abscessus ATCC 19977 DNA gyrase (A2B2 heterotetramer); with DNA gyrase subunit A (GyrA)", "T1 sequence (B1ME45 entry or part of it)": "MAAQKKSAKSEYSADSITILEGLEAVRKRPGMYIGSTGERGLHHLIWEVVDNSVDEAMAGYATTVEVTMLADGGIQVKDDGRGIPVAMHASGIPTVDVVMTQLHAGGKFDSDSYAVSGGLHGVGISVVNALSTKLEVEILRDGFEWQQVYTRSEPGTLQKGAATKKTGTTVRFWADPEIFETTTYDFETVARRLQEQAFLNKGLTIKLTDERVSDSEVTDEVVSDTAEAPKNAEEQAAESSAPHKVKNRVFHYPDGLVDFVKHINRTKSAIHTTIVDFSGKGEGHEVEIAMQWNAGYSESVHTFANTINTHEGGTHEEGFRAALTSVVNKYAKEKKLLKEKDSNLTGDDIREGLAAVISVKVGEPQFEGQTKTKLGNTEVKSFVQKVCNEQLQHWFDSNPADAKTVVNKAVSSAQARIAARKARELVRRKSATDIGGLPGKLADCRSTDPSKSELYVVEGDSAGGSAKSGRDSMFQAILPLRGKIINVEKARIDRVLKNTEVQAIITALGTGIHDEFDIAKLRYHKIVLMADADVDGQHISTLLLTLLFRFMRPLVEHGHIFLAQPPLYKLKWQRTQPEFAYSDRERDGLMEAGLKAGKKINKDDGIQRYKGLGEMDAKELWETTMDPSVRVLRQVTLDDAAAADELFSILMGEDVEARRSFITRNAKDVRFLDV", "T1 sequence (B1ME58 entry or part of it, further chain)": "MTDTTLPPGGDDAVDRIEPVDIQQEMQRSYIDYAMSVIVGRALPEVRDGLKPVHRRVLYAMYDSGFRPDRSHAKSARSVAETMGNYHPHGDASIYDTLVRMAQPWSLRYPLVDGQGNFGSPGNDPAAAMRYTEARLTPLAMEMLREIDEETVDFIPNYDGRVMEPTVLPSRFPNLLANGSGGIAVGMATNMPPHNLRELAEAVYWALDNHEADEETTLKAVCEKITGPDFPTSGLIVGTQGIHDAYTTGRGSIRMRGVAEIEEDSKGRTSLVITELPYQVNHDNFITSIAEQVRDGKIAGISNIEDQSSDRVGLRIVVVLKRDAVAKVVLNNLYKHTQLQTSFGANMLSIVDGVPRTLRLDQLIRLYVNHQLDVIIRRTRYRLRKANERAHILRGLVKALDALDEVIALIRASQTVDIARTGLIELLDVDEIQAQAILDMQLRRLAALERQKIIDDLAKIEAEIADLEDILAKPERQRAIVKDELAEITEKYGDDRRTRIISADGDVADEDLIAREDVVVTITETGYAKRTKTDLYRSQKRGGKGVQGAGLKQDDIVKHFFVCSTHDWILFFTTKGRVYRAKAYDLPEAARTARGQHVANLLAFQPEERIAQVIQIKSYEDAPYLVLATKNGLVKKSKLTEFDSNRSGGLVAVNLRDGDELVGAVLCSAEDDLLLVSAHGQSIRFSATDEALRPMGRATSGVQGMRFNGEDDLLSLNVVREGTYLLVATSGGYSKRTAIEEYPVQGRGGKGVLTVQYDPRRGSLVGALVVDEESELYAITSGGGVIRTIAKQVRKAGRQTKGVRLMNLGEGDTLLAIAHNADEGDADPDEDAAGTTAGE", "experiment": "DNA supercoiling inhibition assay (relaxed pBR322, agarose gel)", "type": "biochemical"}
{"smiles": "CCNC(=O)Nc1nc2cc(-c3cnc(C(C)(C)O)nc3)c(F)c([C@H]3CCCO3)c2[nH]1", "note": "[SPR719]", "values": [{"measurement": "IC50", "result": 1000, "unit": "nM"}]}
